Results: PMC9234961 (Journal of Medicinal Chemistry, 2022)
Values after ≈ are worked out from the molar mass of the structure shown. Values joined by “and” are separate entries in the source; they are usually repeats but may differ in a detail not shown here. Equal values may be shown once. Read-outs that look alike come from different tables or passages of the source. Marks after values point to notes of the source that are not given here.

Experiments:
[1] = target: endogenous BCL6 in OCI-Ly1 cells (Homo sapiens, UniProt P41182); assay: cell-based; conditions: for degradation of BCL6 (in words): OCI-Ly1 MSD assay; for MSD degrader assay [OCI-Ly1] Dmax: mean maximal degradation of BCL6
[2] = Microsomal clearance assay (MLM); format: in vitro ADME; conditions: mouse liver microsomes, 1 μM compound; for microsomal CLint at 0.5 h, 1 µM: female, CD1, pH 7.4
Method in brief: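 Compound (1 µM) was incubated at 37 °C with female CD1 mouse, female Sprague–Dawley rat or mixed-gender human liver microsomes (0.5 mg/mL protein) in 10 mmol/L phosphate, pH 7.4, with 3 mmol/L MgCl2. After 10 min preincubation, 1 mmol/L NADPH started the reaction. Samples taken up to 30 min were methanol-quenched and analysed by LC-MS.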

[3] = Microsomal clearance assay (HLM); format: in vitro ADME; conditions: human liver microsomes, 1 μM compound
Protocol: (§1) 6. Supplementary experimental: in vitro DMPK assays
(§2) 6.1 Microsomal clearance assay
(§3) Microsomal clearance was determined in female CD1 mice, female Sprague–Dawley rats, and mixed gender human liver microsomes obtained from BioIVT (Peterborough, U.K.) following incubation of 1 μM compound at 37 °C in 0.5 mg/mL microsomal protein, 3 mmol/L MgCl2, 1 mmol/L NADPH, 2.5 mmol/L and 10 mmol/L phosphate buffer (pH 7.4) (all purchased from Sigma-Aldrich, Gillingham, U.K). Reactions were started by addition of the cofactors following 10 min preincubation of microsomes with test compound and were terminated at −1, 0, 5, 10, 15, and 30 min with three volumes of ice-cold methanol containing internal standard. Samples were centrifuged at 2800g for 30 min at 4 °C and the supernatants analyzed.
(§4) Control incubations were prepared as above with omission of cofactors. Compound measurements were […]
(§5) separation with a 3 min gradient of 0.1% formic acid in methanol on a Kinetex C18, 50 × 2.1 mm 2.6 μm UPLC column (Phenomenex, Macclesfield, UK). […]

[4] = Microsomal clearance assay (RLM); format: in vitro ADME; conditions: rat liver microsomes, 1 μM compound
Protocol: as §1, §2, §3, §4, §5

[5] = logD7.4 assay (Chrom log D method); format: physicochemical; conditions: pH 7.4, read-out: Measured logD7.4
Method in brief: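 Samples at 1mM in 10% DMSO/90% Trizma buffer (100mM Trizma in 75/25 methanol/water) injected onto a C8 column at 30°C under gradient elution at 2 mL/min. Retention calibrated against calibration and validation standards.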

NMR solubility assay = format: physicochemical; conditions: kinetic solubility by NMR in HEPES buffer at pH 8, 4% DMSO; read-out: Aq. Sol.
in vitro [6] = format: in vitro ADME; conditions: pH 7.4, 10 µM, 16 h at 30 °C
in vitro [7] = format: in vitro ADME; conditions: fraction unbound in OCI-Ly1 DC50 assay medium
in vitro [8] = format: in vitro ADME; conditions: BALB/c; mouse plasma, rapid equilibrium dialysis; read-out: mouse (BALB\c) PPB (converted)
[9] = In vivo pharmacokinetic study in Balb/C mice; set-up: species or system mouse; conditions: female Balb/C mice
HPLC solubility assay = format: physicochemical; conditions: solubility by HPLC in PBS buffer and 1% DMSO at pH 7.4
Protocol: 11 4.2 HPLC solubility assay
10 µL of 10 mM DMSO stock solution was pipetted into a micro centrifuge tube (1.5 mL, Sarstedt part-no.
seconds on vortex mixer (Grant-bio vortex mixer) to create 100 µM solution with 1% DMSO. Following shaking of the suspension on a Bohdan Shaker at 500 rpm for 2 hours at room temperature (20 °C), it was
The concentration of the solubilized compound in solubility sample is measured by HPLC with UV detection using an external standard which was prepared by pipetting 10 µL of the same batch of
The detail of the HPLC method is as following: chromatographic separation at 30°C is carried out over a 5 minute gradient elution method from 90:10 to 10:90 water:methanol (both modified with 0.1% formic acid) at a flow rate of 1.5 mL/min. Calibration curve is prepared by injecting 0.5, 2.5, and 5 µL of compound

human BCL6 BTB domain [10] = target: T1, human BCL6 BTB domain (Homo sapiens, UniProt P41182); conditions: for BCL6 TR-FRET pIC50 mean: mean of replicates
Protocol: (§6) Assays were performed in a 384-well black Proxiplate (Perkin Elmer) containing 1 nM Trx-6xHis-BCL6 (in
(§7) anti-6xHis-Terbium cryptate (CisBio Bioassays, France), in assay buffer (25 mM Hepes pH8, 100 mM NaCl,
(§8) 0.05% Tween20, 0.5 mM TCEP, 0.05% bovine serum albumin). Test compounds in DMSO or DMSO alone
(§9) were added to the wells using an ECHO550 acoustic dispenser (Labcyte Inc) to give the appropriate test
(§10) concentration in 0.7% v/v DMSO final. After 2 hours incubation at room temperature the plate was read
(§11) The % inhibition at each concentration was calculated by normalising FRET ratio to the
(§12) appropriate high (DMSO with all reagents) and low (DMSO without BCL6) controls. IC50 values were
(§13) determined using GraphPad Prism 6.0 or Dotmatics (Bishops Stortford, UK) software by fitting the
(§14) normalised data to a sigmoidal four-parameter logistic fit equation.

human BCL6 BTB domain [11] = target: T1, human BCL6 BTB domain; assay: biochemical; conditions: BCL6 TR-FRET IC50 individual replicates, single replicate values
Protocol: as §6, §7, §8, §9, §10, §11, §12, §13, §14

BCL6 in Karpas 422 cells = BCL6 in Karpas 422 cells (Homo sapiens, UniProt P41182); assay: cell-based; conditions: read-out: MSD degrader assay [Karpas 422] DC50; Karpas 422 cells
Protocol: 3.2 Mesoscale Discovery (MSD) Degradation Assay
An MSD assay was developed for screening of compounds to determine the degradation of endogenous BCL6 in OCI-Ly1 cells. Briefly, test compounds in DMSO or DMSO alone to a total of 1332.5 nL/well were dispensed to a 96-well Nunc™ Edge 2 plate (ThermoFisher Scientific, 267544) using an Echo® 550 acoustic […]
supplemented with 10% heat-inactivated fetal bovine serum (Sera Plus, PAN Biotech, P30-3702) were […]
incubation at 37 °C + 5% CO2 the plate was centrifuged at 300 x g for 5 minutes. […]
plate washer for all wash and aspiration steps, media was removed and cells were rinsed with PBS, centrifuged as before and PBS removed. Cells were lysed in 50 µL ice-cold lysis buffer at pH 7.4 containing 50 mM Tris-HCl, 150 mM NaCl, 1 % Triton X-100 (v/v), 1 mM PMSF, 1 mM activated sodium vanadate, 1 mM EDTA, phosphatase inhibitors 2 and 3 (1:50 dilution) and protease inhibitor cocktail (1:100 dilution).
20 °C or continuing the assay. A 96-well MSD standard bind plate (MSD, L15XA-3) which was coated overnight with 1 µg/mL anti-human BCL6 goat antibody in PBS (R&D Systems, AF5046) was blocked in 3% BSA in TBS + 0.1% Tween-20 for 1 hour with shaking. Wells were emptied thoroughly before 40 µL/well of lysate was transferred from the cell plate. The MSD plate was incubated at RT for 1 hour with shaking then washed three times with TBS + 0.1 % Tween-20. Antibodies were prepared in TBS + 0.1% Tween-20 + 1% BSA. Anti-human BCL6 rabbit antibody (Cell Signalling Technology, 14895S) was added at 1:100 dilution at 25 µL/well. The plate was incubated and washed as before. MSD Sulfo-tag anti-rabbit detection antibody (MSD, R32AB-1) at 1:1000 dilution at 25 µL/well was added. The plate was incubated and washed as before and MSD Gold read buffer (MSD R92TG) at 1:1 dilution with water at 150 µL/well was added. The plate was read within 10 minutes on the MSD Quickplex reader. The % inhibition at each […]
3.3 Cell proliferation assay
Aldrich) supplemented with 10% FBS (Gibco). […]
transferred onto the cells.
Assay plates containing cells […]

HT = assay: Cell proliferation assay (14 days), HT; conditions: Homo sapiens, HT, 336 h, read-out: HT GI50
Protocol: (§15) Cells were seeded in 96-well culture plates at a density of 2500 cells/well in RPMI-1640 medium (Sigma-
(§16) Aldrich) supplemented with 10% FBS (Gibco). Compounds were initially dispensed into 96-well U-bottom
(§17) plates using an Echo 550 acoustic dispenser (Labcyte Inc.), then diluted in RPMI-1640 medium and
(§18) transferred onto the cells. Cells were treated with 8 compound concentrations in duplicate, ranging from
(§19) with compound for 14 days, with medium changes at days 3, 7 and 10 carried out as follows: fresh 96-well
(§20) cell culture plates were prepared containing 100 µl medium plus compound at the assay concentrations
(§21) (white plates were used on day 10 to optimise luminescence measurement). Assay plates containing cells
(§22) were vortexed to mix and cell density in one control well was counted using a Coulter Z2 cell counter
(§23) (Beckman Coulter). The volume of medium containing 2500 cells in the control well was calculated and this volume of cells was transferred from every well of the assay plates to the corresponding well of the fresh plates containing compound. After 14 days, CellTiter Glo reagent (Promega) was added to the medium in each well of the assay plate at a ratio of 1:2, mixed on a plate shaker, then incubated at room temperature for 10 minutes. Luminescence was measured using an Envision plate reader (Perkin Elmer) and the relative luminescence at each compound concentration, compared to DMSO alone, was calculated. GI50 were determined using a 4-parameter curve fit in Dotmatics (Bishops Stortford, UK).

OCI-Ly1 = assay: Cell proliferation assay (14 days), OCI-Ly1; conditions: Homo sapiens, OCI-Ly1, 336 h, read-out: OCI-Ly1 GI50
Protocol: as §15, §16, §17, §18, §19, §20, §21, §22, §23

OCI-Ly3 = assay: Cell proliferation assay (14 days), OCI-Ly3; conditions: Homo sapiens, OCI-Ly3, 336 h, read-out: OCI-Ly3 GI50
Protocol: as §15, §16, §17, §18, §19, §20, §21, §22, §23

SU-DHL-4 = assay: Cell proliferation assay (14 days), SU-DHL-4; conditions: Homo sapiens, SU-DHL-4, 336 h, read-out: SU-DHL-4 GI50
Protocol: as §15, §16, §17, §18, §19, §20, §21, §22, §23

Karpas 422 = assay: Cell proliferation assay (14 days), Karpas 422; conditions: Homo sapiens, KARPAS-422, 336 h, read-out: Karpas 422 GI50
Protocol: as §15, §16, §17, §18, §19, §20, §21, §22, §23

[12] = OCI-Ly1, read-out: MSD degrader assay [OCI-Ly1] Dmax, mean maximal degradation of BCL6, OCI-Ly1 cells, 2 h
[13] = reversed-phase HPLC on Phenomenex Luna C8 column
[14] = OCI-Ly1, read-out: MSD degrader assay [OCI-LY1] Dmax individual replicates, single replicate values
[15] = read-out: MSD degrader assay [OCI-LY1] DC50 individual replicates, single replicate values
[16] = read-out: MSD degrader assay [OCI-Ly1] DC50, geometric mean, OCI-Ly1 cells, 2 h incubation
[17] = read-out: BCL6 TR-FRET IC50, geometric mean, BCOR-AF633 peptide, 2 h incubation

| Compound | Dmax [1, 12] [%] | microsomal CLint at 0.5 h, 1 µM ([3]; both sexes, pH 7.4) [µL/min/mg] | microsomal CLint at 0.5 h, 1 µM ([4]; female, Sprague-Dawley, pH 7.4) [µL/min/mg] | chromatographic logD [5, 13] | PAMPA (pH 7.4) (in vitro [6]) [×10–6 cm s–1] | Dmax [1, 14] [%] | degradation of BCL6 (in words) [1] | MSD degrader assay [OCI-Ly1] Dmax ([1]; OCI-Ly1 cells, 2 h) [%] | DC50 [1, 15] | DC50 [1, 16] [nM] | microsomal CLint at 0.5 h, 1 µM [2] [µL/min/mg] | BCL6 TR-FRET pIC50 mean (human BCL6 BTB domain [10]) | IC50 (human BCL6 BTB domain [10]; [17]) [nM] | IC50 (human BCL6 BTB domain [11]) | further results |
| --- | --- | --- | --- | --- | --- | --- | --- | --- | --- | --- | --- | --- | --- | --- | --- |
| C[C@@H]1CN(c2ncc(Cl)c(Nc3ccc4c(c3)n(CCC(C)(C)O)c(=O)n4C)n2)C[C@H](C)C1(F)F [2 CCT369260, 5-((5-Chloro-2-((3R,5S)-4,4-difluoro-3,5-dimethylpiperidin-1-yl)pyrimidin-4-yl)amino)-3-(3-hydroxy-3-methylbutyl)-1-methyl-1,3-dihydro-2H-benzo[d]imidazol-2-one] | 99.3 | 11 | 10 | 4.3 | 33 | – | – | – | – | – | – | – | – | – | CLint (MLM) [2]: 78 μL/min/mg protein; solubility kinetic at 20 h (NMR solubility assay): 11 µM (≈ 5.6 µg/mL); fu,media (in vitro [7]): 0.022; fraction unbound (in vitro [8]): 0.0004; CL as % Qh [9]: 22 % Qh; CL ([9]; 1 mg/kg i.v.): 19.8 mL/min/kg; Vd ([9]; mouse, in vivo, 1 mg/kg, read-out: Vss): 2.1 L/kg; half-life at 6 h ([9]; mouse, in vivo, po, 5 mg/kg): 84 min; Cmax ([9]; mouse, in vivo, 1 mg/kg i.v. and 5 mg/kg p.o.): 1580 nM; F ([9]; oral bioavailability, 5 mg/kg p.o. vs 1 mg/kg i.v.): 54%; CLu ([9]; unbound clearance): 46731 mL/min/kg |
| Cn1c(=O)c2c(c3cc(Nc4nc(N5CCC(F)(F)[C@@H](CO)C5)ncc4Cl)ccc31)N[C@@H](C1CC1)C(F)(F)CO2 [9a, (S)-10-((5-Chloro-2-((R)-4,4-difluoro-3-(hydroxymethyl)piperidin-1-yl)pyrimidin-4-yl)amino)-2-cyclopropyl-3,3-difluoro-7-methyl-1,2,3,4-tetrahydro-[1,4]oxazepino[2,3-c]quinolin-6(7H)-one] | 82.8 | 14 | 9 | 3.2 | 21 | 76.7 | fully degraded the protein | 83 | 2.5 nM and 3 nM | 2.7 | 142 | 8.8118 | 1.5 | 1.3 nM and 2.2 nM (2×) and 0.9 nM and 4 nM | MSD degrader assay [OCI-LY1] pDC50 mean ([1]; mean of replicates): 8.5622; DC50 ([1]; read-out: Calculated free DC50 [OCI-Ly1], DC50 corrected with fu,media): 0.24 nM; MSD degrader assay [OCI-LY1] Dmax individual replicates ([1]; single replicate values): 89.0%; Aq. Sol. (HPLC solubility assay): 13^f μM and 13 ^e μM; fraction unbound (in vitro [7]; bovine, read-out: fu,media): 0.088 |
| C[C@@H]1C[C@H](O)CN(c2ncc(Cl)c(Nc3ccc4c(c3)c3c(c(=O)n4C)OCC(F)(F)[C@H](C4CC4)N3)n2)C1 [12b CCT373567, (S)-10-((5-Chloro-2-((3S,5R)-3-hydroxy-5-methylpiperidin-1-yl)pyrimidin-4-yl)amino)-2-cyclopropyl-3,3-difluoro-7-methyl-1,2,3,4-tetrahydro-[1,4]oxazepino[2,3-c]quinolin-6(7H)-one] | < 30 | – | – | – | 16 | < 30 | no degradation was seen | > 30 | > 2000 nM | > 2000 | 90 | 8.5554 | 2.8 | 3.9 nM and 2.4 nM (2×) and 2.6 nM | degradation of BCL6 (in words) ([1]; listed as 12b): nondegrading isomer; DC50 (BCL6 in Karpas 422 cells): > 2000 nM; microsomal CLint at 1 μM ([3]; both sexes, pH 7.4): 3 µL/min/mg; CLint (HLM) [3]: low clearance; microsomal CLint at 1 μM ([4]; female, Sprague-Dawley, pH 7.4): 3 µL/min/mg; CLint (RLM) [4]: low clearance; chromatographic logD [5]: 2.9; IC50 (human BCL6 BTB domain [10]; read-out: BCL6 TR-FRET IC50 individual replicates, single replicate values): 2.8 nM; GI50 (HT): 362 nM; GI50 (OCI-Ly1): 83 nM; GI50 (OCI-Ly3): 2140 nM; GI50 (SU-DHL-4): 820 nM; GI50 (Karpas 422): 38 nM |
